For 24 compounds, IC50 and EC50 results are on record in patent US20150119395A1, “NOVEL TRIAZOLE COMPOUNDS THAT MODULATE HSP90 ACTIVITY” (SYNTA PHARMACEUTICALS CORP., priority 2012, published 2015).

The first experiment relates to Her2. The experiment in a line: Her2 degradation in BT-474 cells, in-cell western (ICW), Method 2. As to conditions: BT-474 cells, 24 hours, Her2 signal normalized to DRAQ5; read-out: Her2 IC50 range of compounds of the invention for inhibition of Hsp90. The format is cell-based, human. How it is done: Human BT474 (HTB-20), SK-BR-3 (HTB-30) and MCF-7 breast carcinoma cells (HTB-22) from American Type Culture Collection, VA, USA were grown in Dulbecco's modified Eagle's medium with 4 mM L-glutamine and antibiotics (100 IU/ml penicillin and 100 μg/ml streptomycine; GibcoBRL). To obtain exponential cell growth, cells were trypsinized, counted and seeded at a cell density of 0.5×10^6 cells/ml regularly, every 3 days. All experiments were performed on day 1 after cell passage.
BT-474 cells were plated in the interior 60 wells of a 96 well black clear bottom plate (20,000 cells/well) in DMEM medium, with DMEM media in the surrounding 36 wells, and incubated at 37° C. with 5% CO2 overnight. On the second day, concentration response curve source plates were produced (10 point, 3-fold dilution of compounds in DMSO) followed by a 1:30 dilution in an intermediate dilution plate containing DMEM. Compound was transferred from the intermediate plate to the cell plate at a dilution of 1:10. The cells were incubated at 37° C. with 5% CO2 for 24 hours.
Cells were fixed in 4% phosphate buffered paraformaldehyde for 30 minutes at room temperature and then permeabilized by washing five times with 0.1% Triton X-100 in PBS for 5 minutes at room temperature on a shaker. Cells were blocked with Odyssey Blocking Buffer (LI-COR, #927-40000) on a shaker at room temperature for 1.5 hours followed by incubation with Her2 antibody (CST, #2165) diluted 1:400 in blocking buffer overnight on a shaker at 4° C. Cells were washed five times with 0.1% Tween-20 in PBS for 5 minutes at room temperature on a shaker and incubated with fluorescently labeled secondary antibody (LI-COR, #926-32211) diluted 1:1000 in blocking buffer, and DRAQ5 nuclear stain (Biostatus Limited, #DRAQ5) diluted 1:10,000, at room temperature on a shaker for 1 hour. Cells were washed 5 times with 0.1% Tween-20 in PBS for 5 minutes at room temperature on a shaker and imaged on a LI-COR Odyssey imaging station. The raw data was normalized to DRAQ5 and the Her2 EC50 were calculated using XLfit.
On to `CC(C)c1cc(-c2nnc(-c3cc(C(C)C)c(O)cc3O)n2-c2ccc(N3CCN(C)CC3)cc2)c(O)cc1O` [Compound 1, 6,6′-(4-(4-(4-methylpiperazin-1-yl)phenyl)-4H-1,2,4-triazole-3,5-diyl)bis(4-isopropylbenzene-1,3-diol)], for which the IC50 (as a rule, the concentration at which inhibition is half-maximal) was determined as 3500 nM. In the case of `CC(C)c1cc(-c2nnc(-c3ccncc3)n2-c2ccc(N3CCN(C)CC3)cc2)c(O)cc1O` [Compound 2, 4-isopropyl-6-(4-(4-(4-methylpiperazin-1-yl)phenyl)-5-(pyridin-4-yl)-4H-1,2,4-triazol-3-yl)benzene-1,3-diol], the IC50 amounted to 2280 nM. On to `CC(C)c1cc(-c2nnc(-c3ccccc3O)n2-c2ccc(N3CCN(C)CC3)cc2)c(O)cc1O` [Compound 3, 4-(5-(2-hydroxyphenyl)-4-(4-(4-methylpiperazin-1-yl)phenyl)-4H-1,2,4-triazol-3-yl)-6-isopropylbenzene-1,3-diol], for which the IC50 was 5160 nM. For `CC(C)c1cc(-c2nnc(-c3cccc(O)c3)n2-c2ccc(N3CCN(C)CC3)cc2)c(O)cc1O` [Compound 4, 4-(5-(3-hydroxyphenyl)-4-(4-(4-methylpiperazin-1-yl)phenyl)-4H-1,2,4-triazol-3-yl)-6-isopropylbenzene-1,3-diol], the IC50 came to 543 nM. Still for that read-out and setting: to `CC(C)c1cc(-c2nnc(-c3ccccn3)n2-c2ccc(N3CCN(C)CC3)cc2)c(O)cc1O` [Compound 5, 4-isopropyl-6-(4-(4-(4-methylpiperazin-1-yl)phenyl)-5-(pyridin-2-yl)-4H-1,2,4-triazol-3-yl)benzene-1,3-diol] belongs 543 nM. Regarding `CC(C)c1cc(-c2nnc(-c3cnccn3)n2-c2ccc(N3CCN(C)CC3)cc2)c(O)cc1O` [Compound 6, 4-isopropyl-6-(4-(4-(4-methylpiperazin-1-yl)phenyl)-5-(pyrazin-2-yl)-4H-1,2,4-triazol-3-yl)benzene-1,3-diol], the IC50 turned out to be 3400 nM. Take `CC(C)c1cc(-c2nnc(-c3cccc(O)c3)n2-c2ccc(CN3CCN(C)CC3)cc2)c(O)cc1O` [Compound 7, 4-(5-(3-hydroxyphenyl)-4-(4-((4-methylpiperazin-1-yl)methyl)phenyl)-4H-1,2,4-triazol-3-yl)-6-isopropylbenzene-1,3-diol]: the IC50 worked out at 123 nM. As to `CC(C)c1cc(-c2nnc(-c3cccc(O)c3)n2-c2ccc(N3CCOCC3)cc2)c(O)cc1O` [Compound 8, 4-(5-(3-hydroxyphenyl)-4-(4-morpholinophenyl)-4H-1,2,4-triazol-3-yl)-6-isopropylbenzene-1,3-diol], the half-inhibitory concentration (IC50) is 143 nM.

Staying with this experiment, now noted: Table 3; read-out: EC50 range for Her2 degradation.
`CC(C)c1cc(-c2nnc(-c3cccc(O)c3)n2-c2ccccc2)c(O)cc1O` [Compound 9, 4-(5-(3-hydroxyphenyl)-4-phenyl-4H-1,2,4-triazol-3-yl)-6-isopropylbenzene-1,3-diol]: the EC50 (as a rule, the midpoint of the concentration-response curve) is under 200 nM. `CC(C)c1cc(-c2nnc(-c3cccc(O)c3)n2-c2ccc(CN3CCOCC3)cc2)c(O)cc1O` [Compound 10, 4-(5-(3-hydroxyphenyl)-4-(4-(morpholinomethyl)phenyl)-4H-1,2,4-triazol-3-yl)-6-isopropylbenzene-1,3-diol]: the EC50 stood at 60 nM. As to `CC(C)c1cc(-c2nnc(-c3cccc(O)c3)n2-c2cccnc2)c(O)cc1O` [Compound 11, 4-(5-(3-hydroxyphenyl)-4-(pyridin-3-yl)-4H-1,2,4-triazol-3-yl)-6-isopropylbenzene-1,3-diol], the EC50 was 300 nM.

Take `CC(C)c1cc(-c2nnc(-c3cccnc3)n2-c2cccnc2)c(O)cc1O` [Compound 12, 4-(4,5-di(pyridin-3-yl)-4H-1,2,4-triazol-3-yl)-6-isopropylbenzene-1,3-diol]: the EC50 amounted to 1000 nM. Take `CC(C)c1cc(-c2nnc(-c3cccnc3)n2-c2ccc(CN3CCOCC3)cc2)c(O)cc1O` [Compound 13, 4-isopropyl-6-(4-(4-(morpholinomethyl)phenyl)-5-(pyridin-3-yl)-4H-1,2,4-triazol-3-yl)benzene-1,3-diol]: the EC50 is 100 nM. As to `CC(C)c1cc(-c2nnc(-c3cc4ccccc4[nH]3)n2-c2ccccc2)c(O)cc1O` [Compound 14, 4-(5-(1H-indol-2-yl)-4-phenyl-4H-1,2,4-triazol-3-yl)-6-isopropylbenzene-1,3-diol], the EC50 was found to be 25 nM.

In the case of `CC(C)c1cc(-c2nnc(-c3cccnc3)n2-c2ccccc2)c(O)cc1O` [Compound 15, 4-isopropyl-6-(4-phenyl-5-(pyridin-3-yl)-4H-1,2,4-triazol-3-yl)benzene-1,3-diol], the concentration giving a half-maximal response (EC50) was under 200 nM. With `CC(C)c1cc(-c2nnc(-c3cccnc3)n2-c2ccc(CN3CCN(C)CC3)cc2)c(O)cc1O` [Compound 16, 4-isopropyl-6-(4-(4-((4-methylpiperazin-1-yl)methyl)phenyl)-5-(pyridin-3-yl)-4H-1,2,4-triazol-3-yl)benzene-1,3-diol], the EC50 stood at 18 nM. Consider `CC(C)c1cc(-c2nnc(-c3cccnc3)n2-c2ccc(N3CCOCC3)cc2)c(O)cc1O` [Compound 17, 4-isopropyl-6-(4-(4-morpholinophenyl)-5-(pyridin-3-yl)-4H-1,2,4-triazol-3-yl)benzene-1,3-diol], for which the concentration giving a half-maximal response (EC50) stood at 38 nM. Take `COc1cc(O)c(-c2nnc(-c3cccnc3)n2-c2ccc(CN3CCOCC3)cc2Cl)cc1C(C)C` [Compound 18, 2-(4-(2-chloro-4-(morpholinomethyl)phenyl)-5-(pyridin-3-yl)-4H-1,2,4-triazol-3-yl)-4-isopropyl-5-methoxyphenol]: the EC50 is 5000 nM. For `CCN1CCN(Cc2ccc(-n3c(-c4cccnc4)nnc3-c3cc(C(C)C)c(O)cc3O)c(Cl)c2)CC1` [Compound 19, 4-(4-(2-chloro-4-((4-ethylpiperazin-1-yl)methyl)phenyl)-5-(pyridin-3-yl)-4H-1,2,4-triazol-3-yl)-6-isopropylbenzene-1,3-diol], the EC50 was 52 nM.

For `COc1cc(O)c(-c2nnc(-c3cccnc3)n2-c2ccc(CN3CCN(C)CC3)cc2)cc1C(C)C` [Compound 20, 4-isopropyl-5-methoxy-2-(4-(4-((4-methylpiperazin-1-yl)methyl)phenyl)-5-(pyridin-3-yl)-4H-1,2,4-triazol-3-yl)phenol], the EC50 was 2090 nM. As to `CC(C)c1cc(-c2ccc(-c3cccnc3)n2-c2ccc(N3CCOCC3)cc2)c(O)cc1O` [Compound 21, 4-isopropyl-6-(1-(4-morpholinophenyl)-5-(pyridin-3-yl)-1H-pyrrol-2-yl)benzene-1,3-diol], the concentration giving a half-maximal response (EC50) came out at 40 nM.

Take `COc1ccc(-c2[nH]nc(-c3cc(C(C)C)c(O)cc3O)c2-c2ccc(OC)cc2)cc1` [Compound 22, 4-(4,5-bis(4-methoxyphenyl)-1H-pyrazol-3-yl)-6-isopropylbenzene-1,3-diol]: the EC50 is over 200 nM. With `COc1ccc(-c2cnc(-c3cc(C(C)C)c(O)cc3O)n2-c2ccc(N3CCOCC3)nc2)cc1` [Compound 23, 4-isopropyl-6-(5-(4-methoxyphenyl)-1-(6-morpholinopyridin-3-yl)-1H-imidazol-2-yl)benzene-1,3-diol], the EC50 is under 200 nM.

For `COc1ccc(-c2cnc(-c3cc(C(C)C)c(O)cc3O)n2-c2ccc(CN3CCN(C)CC3)cc2)cc1` [Compound 24, 4-isopropyl-6-(5-(4-methoxyphenyl)-1-(4-((4-methylpiperazin-1-yl)methyl)phenyl)-1H-imidazol-2-yl)benzene-1,3-diol], the concentration giving a half-maximal response (EC50) is under 200 nM.
